Measurements reported in US9657002B2, “Oxindole derivatives carrying an oxetane substituent and use thereof for treating vassopressin-related diseases” (AbbVie Deutschland GmbH & Co. KG, priority 2013, dated 2017).
Like-named read-outs stand apart in the source and are kept apart here.

Columns and labels:
[1] = biological target: T1, human vasopressin V1b receptor (Homo sapiens, UniProt P47901); assay: biochemical
T1 sequence (P47901 1-424): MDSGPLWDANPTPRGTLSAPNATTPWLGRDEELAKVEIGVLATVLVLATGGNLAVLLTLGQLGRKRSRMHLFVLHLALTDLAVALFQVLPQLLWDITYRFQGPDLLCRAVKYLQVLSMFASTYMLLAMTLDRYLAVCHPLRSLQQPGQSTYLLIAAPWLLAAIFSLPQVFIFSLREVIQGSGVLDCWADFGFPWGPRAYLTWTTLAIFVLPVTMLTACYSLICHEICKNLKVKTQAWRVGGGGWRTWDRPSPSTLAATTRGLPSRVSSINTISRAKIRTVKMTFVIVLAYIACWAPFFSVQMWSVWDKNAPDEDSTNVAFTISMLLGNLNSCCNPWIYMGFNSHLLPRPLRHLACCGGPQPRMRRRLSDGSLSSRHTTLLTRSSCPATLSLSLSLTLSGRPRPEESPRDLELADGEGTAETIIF

[2] = biological target: human vasopressin V1a receptor (Homo sapiens, UniProt P37288); assay: Vasopressin V1a receptor binding assay; settings: selectivity quotient, human V1a vs human V1b
[3] = biological target: T1, human vasopressin V1b receptor; settings: read-out: Ki(h-V1b)*, CHO-K1 membranes, 3H-AVP displacement

Sequence of human vasopressin V1a receptor (P37288 whole entry): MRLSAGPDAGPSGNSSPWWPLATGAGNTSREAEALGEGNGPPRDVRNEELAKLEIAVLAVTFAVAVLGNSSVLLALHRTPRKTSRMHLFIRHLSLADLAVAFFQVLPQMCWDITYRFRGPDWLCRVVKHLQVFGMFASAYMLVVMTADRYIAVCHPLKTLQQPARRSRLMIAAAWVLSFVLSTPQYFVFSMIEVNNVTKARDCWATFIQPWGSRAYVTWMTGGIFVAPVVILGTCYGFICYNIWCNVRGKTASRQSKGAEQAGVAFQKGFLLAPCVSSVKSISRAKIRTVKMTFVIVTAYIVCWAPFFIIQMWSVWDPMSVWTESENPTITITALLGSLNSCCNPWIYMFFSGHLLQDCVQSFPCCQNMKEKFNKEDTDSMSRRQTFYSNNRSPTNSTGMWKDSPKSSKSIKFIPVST

| Compound | Ki [1] [nM] | Ki(h-V1a)/Ki(h-V1b) [2] | Ki [3] [nM] |
| --- | --- | --- | --- |
| COc1ncccc1[C@]1(NC(=O)N2CCN(C3CCN(C4COC4)CC3)CC2)C(=O)N(S(=O)(=O)c2ccc(C#N)cc2)c2ccc(C#N)cc21 [Example 43, N-[(3S)-5-cyano-1-(4-cyanophenyl)sulfonyl-3-(2-methoxy-3-pyridyl)-2-oxo-indolin-3-yl]-4-[1-(oxetan-3-yl)-4-piperidyl]piperazine-1-carboxamide] | 10 to 100 | + (10-<25) |  |
| COc1ccc(S(=O)(=O)N2C(=O)[C@@](NC(=O)N3CCN(C4CCN(C5COC5)CC4)CC3)(c3cccnc3OC(C)C)c3cc(C#N)ccc32)c(OC)c1 [Example 44, N-[(3S)-5-cyano-1-(2,4-dimethoxyphenyl)sulfonyl-3-(2-isopropoxy-3-pyridyl)-2-oxo-indolin-3-yl]-4-[1-(oxetan-3-yl)-4-piperidyl]piperazine-1-carboxamide] | 1 to 10 | +++ (>75) |  |
| COc1cc(C)ccc1S(=O)(=O)N1C(=O)[C@@](NC(=O)N2CCN(C3CCN(C4COC4)CC3)CC2)(c2cccnc2OC)c2cc(C#N)ccc21 [Example 46, N-[(3S)-5-cyano-1-(2-methoxy-4-methyl-phenyl)sulfonyl-3-(2-methoxy-3-pyridyl)-2-oxo-indolin-3-yl]-4-[1-(oxetan-3-yl)-4-piperidyl]piperazine-1-carboxamide] | 10 to 100 | +++ (>75) |  |
| COc1ncccc1[C@]1(NC(=O)N2CCN(C3CCN(C4COC4)CC3)CC2)C(=O)N(S(=O)(=O)c2ccc(C#N)cc2F)c2ccc(C#N)cc21 [Example 47, N-[(3S)-5-cyano-1-(4-cyano-2-fluoro-phenyl)sulfonyl-3-(2-methoxy-3-pyridyl)-2-oxo-indolin-3-yl]-4-[1-(oxetan-3-yl)-4-piperidyl]piperazine-1-carboxamide] | 10 to 100 | ++ (25-75) |  |
| COc1ccccc1S(=O)(=O)N1C(=O)[C@@](NC(=O)N2CCC(C3CCN(C4COC4)CC3)CC2)(c2cccnc2OC)c2cc(C#N)ccc21 [Example 49, (S)—N-(5-cyano-1-((2-methoxyphenyl)sulfonyl)-3-(2-methoxypyridin-3-yl)-2-oxoindolin-3-yl)-1′-(oxetan-3-yl)-[4,4′-bipiperidine]-1-carboxamide] | 1 to 10 | +++ (>75) |  |
| COc1ncccc1[C@]1(NC(=O)N2CCC(C3CCN(C4COC4)CC3)CC2)C(=O)N(S(=O)(=O)c2ccccc2)c2ccc(C#N)cc21 [Example 50, (S)—N-(5-cyano-3-(2-methoxypyridin-3-yl)-2-oxo-1-(phenylsulfonyl)indolin-3-yl)-1′-(oxetan-3-yl)-[4,4′-bipiperidine]-1-carboxamide] | 10 to 100 | ++ (25-75) |  |
| CCOc1ncccc1[C@]1(NC(=O)N2CCN(C3CCN(C4(C)COC4)CC3)CC2)C(=O)N(S(=O)(=O)c2ccc(OC)cc2OC)c2ccc(C#N)cc21 [Example 51, (S)—N-(5-cyano-1-((2,4-dimethoxyphenyl)sulfonyl)-3-(2-ethoxypyridin-3-yl)-2-oxoindolin-3-yl)-4-(1-(3-methyloxetan-3-yl)piperidin-4-yl)piperazine-1-carboxamide] | 1 to 10 | +++ (>75) |  |
| COc1ccc(S(=O)(=O)N2C(=O)[C@@](NC(=O)N3CCN(C4CCN(C5(C)COC5)CC4)CC3)(c3cccnc3OC)c3cc(C#N)ccc32)c(OC)c1.O=C(O)C(F)(F)F.O=C(O)C(F)(F)F [Example 52, (S)—N-(5-cyano-1-((2,4-dimethoxyphenyl)sulfonyl)-3-(2-methoxypyridin-3-yl)-2-oxoindolin-3-yl)-4-(1-(3-methyloxetan-3-yl)piperidin-4-yl)piperazine-1-carboxamide, 2 trifluoroacetic acid] |  | +++ (>75) | 1 to 10 |
| COc1ccc(S(=O)(=O)N2C(=O)[C@@](NC(=O)N3CCN(C4CCN(C5COC5C)CC4)CC3)(c3cccnc3OC)c3cc(C#N)ccc32)c(OC)c1.O=C(O)C(F)(F)F.O=C(O)C(F)(F)F (stereo partly drawn) [Example 53, N—((S)-5-cyano-1-((2,4-dimethoxyphenyl)sulfonyl)-3-(2-methoxypyridin-3-yl)-2-oxoindolin-3-yl)-4-(1-(2-methyloxetan-3-yl)piperidin-4-yl)piperazine-1-carboxamide, 2 trifluoroacetic acid] |  | ++ (25-75) | 1 to 10 |
| COc1ccc(S(=O)(=O)N2C(=O)[C@@](NC(=O)N3CCN(C4CCN(C5COC5)CC4)CC3)(c3cc(OC)ccc3OC)c3cc(C#N)ccc32)c(OC)c1 [Example 54, (S)—N-(5-cyano-3-(2,5-dimethoxyphenyl)-1-((2,4-dimethoxyphenyl)sulfonyl)-2-oxoindolin-3-yl)-4-(1-(oxetan-3-yl)piperidin-4-yl)piperazine-1-carboxamide] | < 1 | ++ (25-75) |  |
| COc1ccc(S(=O)(=O)N2C(=O)[C@@](NC(=O)N3CCC(C4CCN(C5COC5)CC4)CC3)(c3cc(OC)ccc3OC)c3cc(C#N)ccc32)c(OC)c1 [Example 55, (S)—N-(5-cyano-3-(2,5-dimethoxyphenyl)-1-((2,4-dimethoxyphenyl)sulfonyl)-2-oxoindolin-3-yl)-1′-(oxetan-3-yl)-[4,4′-bipiperidine]-1-carboxamide] | < 1 | + (10-<25) |  |
| (S)—N-(5-cyano-1-((2,4-dimethoxyphenyl)sulfonyl)-3-(2-ethoxypyridin-3-yl)-2-oxoindolin-3-yl)-4-(4-(oxetan-3-yl)piperazin-1-yl)piperidine-1-carboxamide [Example 2] |  | ++ (25-75) | 1 to 10 |
